Laboratory results reported in ChEMBL document CHEMBL5463724, “Data for DCP probe VZ185” (2023).
Active and inactive are the calls of the source.

How the values were obtained:
Type in all cases: functional, cell-based
A204 = assay: Cell viability (A204 cells) (CellTiterGlo); details: Homo sapiens
[1] = molecular target: T1, Bromodomain-containing protein 7 (Homo sapiens, UniProt Q9NPI1); assay: Degradation of BRD7 in RI-1 cells (8 h) (Western Blot degradation assay)
T1 sequence (Q9NPI1 whole entry): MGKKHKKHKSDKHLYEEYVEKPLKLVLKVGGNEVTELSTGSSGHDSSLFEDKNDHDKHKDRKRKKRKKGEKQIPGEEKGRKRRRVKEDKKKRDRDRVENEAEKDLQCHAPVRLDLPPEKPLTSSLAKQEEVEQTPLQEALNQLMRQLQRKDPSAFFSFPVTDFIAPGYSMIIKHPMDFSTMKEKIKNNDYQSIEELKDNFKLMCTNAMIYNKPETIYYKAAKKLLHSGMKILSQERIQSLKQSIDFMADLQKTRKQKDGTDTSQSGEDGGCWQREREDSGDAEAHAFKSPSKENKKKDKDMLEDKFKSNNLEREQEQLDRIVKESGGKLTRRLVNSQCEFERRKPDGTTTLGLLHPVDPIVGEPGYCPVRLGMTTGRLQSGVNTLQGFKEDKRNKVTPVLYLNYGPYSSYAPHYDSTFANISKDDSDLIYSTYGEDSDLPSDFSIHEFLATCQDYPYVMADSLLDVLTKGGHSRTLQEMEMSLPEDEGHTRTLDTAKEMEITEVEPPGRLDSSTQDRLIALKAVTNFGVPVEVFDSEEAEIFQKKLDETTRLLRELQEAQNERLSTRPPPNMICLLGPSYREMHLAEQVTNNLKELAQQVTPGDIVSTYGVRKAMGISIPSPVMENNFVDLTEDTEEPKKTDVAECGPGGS

EOL1 = assay: Cell viability (EOL-1 cells) (CellTiterGlo); details: Homo sapiens

COc1cc(-c2cn(C)c(=O)c3cnccc23)cc(OC)c1CN1CCN(CCCCCOc2cc(-c3scnc3C)ccc2CNC(=O)[C@@H]2C[C@@H](O)CN2C(=O)[C@@H](NC(=O)C2(F)CC2)C(C)(C)C)CC1
active: EC50 (A204) 39.8 nM | DC50 [1] 4.5 nM | EC50 (EOL1) 3.4 nM
